# Laboratory results as given in patent EP0341661A2, “Peptide-drug compositions containing alpha-aminoboronic acid derivatives” (THE DU PONT MERCK PHARMACEUTICAL COMPANY, priority 1988, dated 1989).
# Counter-ions that a name gives are not always drawn.
# Tested on: aminopeptidases
# Test: In situ nasal perfusion: degradation of 100 µM leucine enkephalin in the nasal perfusate
# Type: in vivo, Sprague-Dawley rats
# Conditions: for % Leucine Enkephalin Remaining: 0.1 µM inhibitor
# Procedure: In order to evaluate the effectiveness of the α-aminoboronic acid derivative inhibitors of this invention, an animal model was used (according to A. Hussain, J. Furaj, A. Yukihiko and J. E. Truelove, Biochem. Biophys. Res. Com. 133, 923, 1985) to assess the degradation of proteins and peptides in situ and in vivo in situ in the nasal cavity of rats. The method involved the use of Sprague-Dawley rats weighing approximately 300 grams. Each rat was anesthetized with sodium pentobarbitol (50 mg/kg). An incision was made in the neck and the trachea was canulated with PE 240 tubing. For the in situ studies, a second tube, which served to introduce the perfusing solution, was inserted through the esophagus to the posterior part of the nasal cavity. The nasopalatine was closed with an adhesive to prevent drainage of the perfusing solution from the nasal to the oral cavity. For the in vivo in situ studies, the esophagus was canulated using PE 240 tubing closed at one end. The closed end was pushed to the posterior end of the nasal passage and then tied in place. The nasopalatine was closed with an adhesive to prevent drainage of the perfusing solution from the nasal to the oral cavity. The rats were dosed in one nostril with 50 µl of peptide solution in two forms; the control solution had no inhibitor added, the test solution had inhibitor added at concentrations specified in the examples shown below. The dosing solution was 0.1 M phosphate buffer (pH 7.4). At certain time intervals (one rat/time interval), the drug was washed from the nose via the other nostril with 10 ml of 0.1 M phosphate buffer (pH 3.8) using a peristaltic pump. The nasal washing was then placed in a 10 ml volumetric flask and adjusted to 10 ml with the same buffer and analyzed for the peptide by HPLC. The analysis of leucine enkephalin and its major metabolite involved taking aliquots of samples, diluting them with 200 µl of 0.1 M citric acid (pH 2.3) to quench hydrolysis and subjecting the samples to analysis (for in vivo in situ studies, the washings were injected as they were obtained). High Pressure Liquid Chromatography (HPLC) was run on a 4.6 x 250 mm C₈ column. The mobile phase consisted of 0.1 M NaH₂PO₄-H₃PO₄-acetonitrile (916 : 5 : 275) and was delivered at a flow rate of 1.7 ml/min. Detection was by UV at 210 nm. Retention times for leucine enkephalin and its major degradation product, Des-Tyr-leucine enkephalin were 7.3 and 4.8 min., respectively. Data were calculated as % of leucine enkephalin remaining in the nasal perfusate as a function of time, counting the concentration at zero time as 100%. In this example, a 10 ml solution of 0.1 M phosphate buffer solution (pH 7.4) containing 100 µM leucine enkephalin (the peptide) in the absence or presence of 0.1 µM 3-methyl-1(4,4,5,5-tetramethyl-1,3,2-dioxaborolane-2-yl)-1-butamine, trifluoroacetic acid salt (boroleucine) as the inhibitor was perfused nasally in rats as described above. A 10 ml portion of the peptide solution was placed in a water-jacketed container, maintained at 37°C and circulated through the nasal cavity of rats using a peristaltic pump. The perfusing solution was passed through the nasal cavity, out the nostrils, through a funnel, and returned to the water-jacketed container. The perfusate was analyzed by the ANALYTICAL METHOD described above.
smiles,measurement,setting,value
"CC(C)CC(N)B1OC(C)(C)C(C)(C)O1 (centres unmarked) [boroleucine, 3-methyl-1(4,4,5,5-tetramethyl-1,3,2-dioxaborolane-2-yl)-1-butamine, trifluoroacetic acid salt]",% of leucine enkephalin remaining in the nasal perfusate,"0.01 µM Boroleucine (title: 0.1 µM), 0 min",100.0±0.0%
same,% of leucine enkephalin remaining in the nasal perfusate,"0.01 µM Boroleucine (title: 0.1 µM), 5 min",96.6±1.5%
same,% of leucine enkephalin remaining in the nasal perfusate,"0.01 µM Boroleucine (title: 0.1 µM), 10 min",93.5±3.0%
same,% of leucine enkephalin remaining in the nasal perfusate,"0.01 µM Boroleucine (title: 0.1 µM), 20 min",96.4±1.7%
same,% of leucine enkephalin remaining in the nasal perfusate,"0.01 µM Boroleucine (title: 0.1 µM), 30 min",92.7±3.3%
same,% of leucine enkephalin remaining in the nasal perfusate,"0.01 µM Boroleucine (title: 0.1 µM), 45 min",91.8±2.5%
same,% of leucine enkephalin remaining in the nasal perfusate,"0.01 µM Boroleucine (title: 0.1 µM), 90 min",85.7±3.5%
same,% of leucine enkephalin remaining in the nasal perfusate,"0.01 µM inhibitor, 0 min",100.0±0.0%
same,% of leucine enkephalin remaining in the nasal perfusate,"0.01 µM inhibitor, 10 min",90.6±3.5%
same,% of leucine enkephalin remaining in the nasal perfusate,"0.01 µM inhibitor, 20 min",89.1±5.3%
same,% of leucine enkephalin remaining in the nasal perfusate,"0.01 µM inhibitor, 30 min",79.1±2.9%
same,% of leucine enkephalin remaining in the nasal perfusate,"0.01 µM inhibitor, 45 min",74.9±2.8%
same,% of leucine enkephalin remaining in the nasal perfusate,"0.01 µM inhibitor, 60 min",69.2±2.0%
same,% of leucine enkephalin remaining in the nasal perfusate,"0.01 µM inhibitor, 90 min",56.2±1.6%
same,% of leucine enkephalin remaining in the nasal perfusate,"0.03 µM inhibitor, 0 min",100.0±0.0%
same,% of leucine enkephalin remaining in the nasal perfusate,"0.03 µM inhibitor, 5 min",94.1±1.7%
same,% of leucine enkephalin remaining in the nasal perfusate,"0.03 µM inhibitor, 10 min",93.6±1.6%
same,% of leucine enkephalin remaining in the nasal perfusate,"0.03 µM inhibitor, 20 min",91.8±2.2%
same,% of leucine enkephalin remaining in the nasal perfusate,"0.03 µM inhibitor, 30 min",88.3±1.4%
same,% of leucine enkephalin remaining in the nasal perfusate,"0.03 µM inhibitor, 45 min",85.7±1.3%
same,% of leucine enkephalin remaining in the nasal perfusate,"0.03 µM inhibitor, 60 min",81.5±1.4%
same,% of leucine enkephalin remaining in the nasal perfusate,"0.03 µM inhibitor, 90 min",72.9±1.0%
same,order of inhibition of degradation,"0.1 µM boroleucine, 10 µM bestatin, 100 µM puromycin",boroleucine> bestatin> puromycin
same,% Leucine Enkephalin Remaining,0 min,100.0±0.0%
same,% Leucine Enkephalin Remaining,5 min,96.6±1.5%
same,% Leucine Enkephalin Remaining,10 min,93.5±3.0%
same,% Leucine Enkephalin Remaining,20 min,96.4±1.7%
same,% Leucine Enkephalin Remaining,30 min,92.7±3.3%
same,% Leucine Enkephalin Remaining,45 min,91.8±2.5%
same,% Leucine Enkephalin Remaining,60 min,88.8±2.6%
same,% Leucine Enkephalin Remaining,90 min,85.6±3.5%
same,comparison of the inhibitory effect of equimolar concentrations,0.1 µM of each inhibitor,superior to boroalanine
